Reference: paper PMC8570331, “8-Hydroxyquinoline-Amino Acid Hybrids and Their Half-Sandwich Rh and Ru Complexes: Synthesis, Anticancer Activities, Solution Chemistry and Interaction with Biomolecules” (International Journal of Molecular Sciences, 2021)
Marks after values point to notes of the source that are not given here.

Assays:
[1] = test system: Colo-320 human colon adenocarcinoma cell line (multidrug-resistant); assay: MTT cytotoxicity assay in Colo-320; assay type: cell-based; details: 72 h incubation
Procedure: The in vitro cytotoxic activity of the novel water-soluble amino acid derivatives of HQCl and their RhCp* and RuCym complexes was measured by the thiazolyl blue tetrazolium bromide (MTT) assay in two human colon adenocarcinoma cell lines (Colo-205 and Colo-320) and in one non-tumoral human lung fibroblast cell line (MRC-5). The results are given in terms of IC50 values (Table 1). Colo-205 is a drug-sensitive cell line with a normal ABCB1 transporter expression pattern, while Colo-320 is multidrug-resistant and overexpresses the ABCB1 system.
All cell culture reagents were obtained from Sigma-Aldrich and plasticware from Sarstedt (Nümbrecht, Germany). Human colonic Colo-205 doxorubicin-sensitive and Colo-320/MDR-LRP multidrug-resistant adenocarcinoma and MRC-5 human embryonal lung fibroblast cell lines were purchased from LGC Promochem, Teddington, UK. The colonic adenocarcinoma cells were cultured in Roswell Park Memorial Institute (RPMI) 1640 medium supplemented with 10% heat-inactivated fetal bovine serum, 2 mM L-glutamine, 1 mM sodium pyruvate and […]. The MRC-5 cell line was cultured in Eagle’s Minimal Essential Medium (EMEM, Sigma-Aldrich, St. Louis, MO, USA) supplemented with a non-essential amino acid (NEAA) mixture (Sigma-Aldrich, St. Louis, MO, USA) a selection of vitamins, 10% heat-inactivated foetal bovine serum (FBS), 2 mM L-glutamine (Sigma-Aldrich, St. Louis, MO, USA), 1 mM Na-pyruvate (Sigma-Aldrich, St. Louis, MO, USA), nystatin (Sigma-Aldrich, St. Louis, MO, USA) and a penicillin-streptomycin mixture (Sigma-Aldrich, St. Louis, MO, USA) in con-centrations of 100 U/L and 10 mg/L, respectively. The cells were incubated at 37 °C, in a 5% CO2, 95% air atmosphere. All cell lines were detached with Trypsin-Versene (EDTA) solution for 5 min at 37 °C.
The tested compounds were dissolved in 10% (v/v) DMSO/H2O using 4 mM concentration. Doxorubicin (Merck, Darmstadt, Germany) was used as a positive control. Then stock solutions were diluted in complete culture medium, and two-fold serial dilutions of compounds were prepared in 100 μL of the medium, horizontally. The semi-adherent colonic adenocarcinoma cells were treated with Trypsin-Versene (EDTA) solution. They were adjusted to a density of 1 × 10^4 cells in 100 μL of RPMI 1640 or EMEM medium and were added to each well, with the exception of the medium control wells. The final volume of the wells containing compounds and cells was 200 μL. The plates containing Colo-205, Colo-320 or MRC-5 cells were incubated at 37 °C for 72 h; at the end of the incubation period, 20 μL of MTT solution (from a stock solution of 5 mg/mL) were added to each well. After incubation at 37 °C for 4 h, 100 μL of SDS solution (10% in 0.01 M HCI) were added to each well, and the plates were further incubated at 37 °C overnight. […] The IC50 values were obtained from at least 3 independent experiments.

[2] = Proton dissociation and H2O/Cl- exchange constants of the complexes (UV-vis, 1H NMR); assay type: physicochemical; details: T = 25.0 °C; for logK′ (H2O/Cl−) conditional exchange constant: pH 7.4; for pKa1 of the complex / pKa2 of the complex: I = 0.2 M KNO3
Procedure: In the basic pH range, both the UV-vis and ^1H NMR spectra recorded for the [M(arene)(H2O)3]^2+–ligand (1:1) systems reveal the further chemical transformation of the [M(arene)(HQCl-D-(h)ProH−1)(H2O)]^+ species. […] It should be noted that peaks of the p-cymene CH3 groups are doubled at pH > 10 (Figure S21b), indicating the loss of their symmetry due to the formation of the hydroxido complex, which probably blocks the free rotation of the arene ligand. Two pKa values were determined by both methods for each RuCym complex that is in good agreement (Table 3).
These deprotonation processes take place at somewhat higher pH in the case of the RhCp* complexes compared to the RuCym compounds; however, other differences were also observed.
Thus, only one pKa value could be computed (Table 3), which is rather assigned to the H2O → OH^− process. The peaks of the protons in the ^1H NMR spectra located nearby the metal center (both 8-hydroxyquinoline CH and CH3 protons of RhCp*) and the peaks of the homoproline moiety are shifted by increasing the pH (Figure S22b,c). […] Due to this side-reaction, no pKa values were calculated from the ^1H NMR spectra.
Based on the determined pKa values of the complexes (Table 3), it can be concluded that at physiological pH all of them are present predominantly in their [M(arene)(HQCl-D-(h)ProH−1)(H2O)]^+ form. However, in the presence of chloride ions, the exchange of the aqua ligand to the halide ligand is possible. The water/chloride co-ligand exchange process was monitored spectrophotometrically at pH 7.4, as it was performed for other RuCym and RhCp* complexes in our previous works. […] It can be concluded that the RhCp* complexes have stronger chloride ion affinity. The coordination of the chloride ion changes the charge of the complex; thus, it will also influence lipophilicity. In order to characterize the hydrophilic/lipophilic character of the complexes, n-octanol/buffer aqueous solution partitioning was performed at pH 7.4. The measurements were performed at three kinds of chloride ion concentrations regarding different biofluids (4, 24 and 100 mM for nucleus, cytosol and blood, respectively). The calculated logD7.4 values can be found in Figure 8.
Agilent Cary 8454 diode array spectrophotometer was utilized to obtain UV-vis spectra in the wavelength range 190–1100 nm. The path length (ℓ) was 1 cm in most cases (the actual ℓ is always indicated in the legends of the figures). The concentrations of the ligands and complexes were between 88 and 240 µM. For HSA and ct-DNA containing samples, complex concentrations were 100 µM, and 0.5 and 2 equiv. biomolecule were added for kinetic studies, respectively. Individual samples contained 0–20 µM HSA and 0–1.75 mM (nucleotide) ct-DNA. Spectra were always background corrected. The computer program HypSpec was used to obtain stability constants.
Bruker Avance III HD Ascend 500 Plus instrument (Billerica, MA, USA) was used for NMR studies. ^1H NMR spectroscopic measurements were carried out with a WATERGATE water suppression pulse scheme in the presence of 10% (v/v) D2O in most cases. DSS internal standard was added to samples to obtain reference peaks. Complex concentrations were 0.5 mM or 1.0 mM, and 0.5 equiv. HSA was added. ^1H NMR titrations were carried out in the presence of 0.2 M KNO3. With the FHA model peptide, the measurements were performed at 0.5 or 1 mM metal complex concentrations, and 1:1, 1:2 or 2:1 peptide-to-metal complex ratios were applied. The computer program HypSpec was used to obtain stability constants.

Structure (SMILES) | IC50 [1] [µM] | logK′ (H2O/Cl−) conditional exchange constant ([2]; UV-vis) | pKa1 of the complex ([2]; UV-vis, chloride-free) | pKa1 of the complex ([2]; 1H NMR) | pKa2 of the complex ([2]; 1H NMR) | pKa2 of the complex ([2]; UV-vis, chloride-free)
Cc1c(C)c(C)[c-](C)c1C.O=C(O)[C@H]1CCC[NH+]1Cc1cc(Cl)c2cccnc2c1[O-].[Cl-].[Cl-].[Rh+3] [RhCp*–HQCl-D-Pro, [RhCp*(HQCl-D-Pro)Cl]Cl] | 34.3 ± 1 | 1.72 ± 0.01 | 10.08 ± 0.02 | – | – | –
Cc1c(C)c(C)[c-](C)c1C.O=C(O)[C@H]1CCCC[NH+]1Cc1cc(Cl)c2cccnc2c1[O-].[Cl-].[Cl-].[Rh+3] [RhCp*–HQCl-D-hPro, [RhCp*(HQCl-D-hPro)Cl]Cl] | 18.9 ± 0.54 | 1.79 ± 0.01 | 10.11 ± 0.02 | 9.82 ± 0.13 ^a | 10.06 ± 0.06 ^b | –
Cc1ccc(C(C)C)cc1.O=C(O)[C@H]1CCC[NH+]1Cc1cc(Cl)c2cccnc2c1[O-].[Cl-].[Cl-].[Ru+2] [RuCym–HQCl-D-Pro, [RuCym(HQCl-D-Pro)Cl]Cl] | > 100 | 1.18 ± 0.01 | 8.96 ± 0.01 | 9.02 ± 0.07 | 10.69 ± 0.06 | 10.67 ± 0.01
Cc1ccc(C(C)C)cc1.O=C(O)[C@H]1CCCC[NH+]1Cc1cc(Cl)c2cccnc2c1[O-].[Cl-].[Cl-].[Ru+2] [RuCym–HQCl-D-hPro, [RuCym(HQCl-D-hPro)Cl]Cl] | > 100 | 1.28 ± 0.01 | 8.78 ± 0.01 | 8.77 ± 0.05 | 10.13 ± 0.04 | 10.03 ± 0.02
